ChEMBL document CHEMBL3804754, “Optimization of Novel Aza-benzimidazolone mGluR2 PAMs with Respect to LLE and PK Properties and Mitigation of CYP TDI” (ACS Med Chem Lett, 2016)
Converted amounts (≈) assume the structure as drawn. The source made the active and inactive calls. The rule behind the calls is not given here.

Assays:
[1] = molecular target: T1, Metabotropic glutamate receptor 2 (Homo sapiens, UniProt Q14416); experiment: Positive allosteric modulation of recombinant human mGlu2 receptor expressed in CHO cells assessed as potentiation of glutamate-induced effect preincubated for 5 mins followed by glutamate stimulation for 3 mins by Fluo-4AM staining-based FLIPR assay; type: cell-based
[2] = Solubility of compound at pH 7; type: physicochemical; conditions: buffer
[3] = (§1) AUC in Wistar Hannover rat at 10 mg/kg, po administered as single dose; type: ADME, organism-based; conditions: Wistar Hannover, in vivo
[4] = Half life in Wistar Hannover rat at 2 mg/kg, iv administered as single dose; type: ADME, organism-based; conditions: in vivo
Rattus norvegicus [5] = experiment: Fraction unbound adjusted clearance in Wistar Hannover rat at 2 mg/kg, iv administered as single dose; type: ADME, organism-based; conditions: in vivo
Rattus norvegicus [6] = experiment: as §1; type: ADME, organism-based; conditions: in vivo
Rattus norvegicus [7] = experiment: (§2) Oral bioavailability in Wistar Hannover rat at 10 mg/kg administered as single dose; type: ADME, organism-based; conditions: in vivo
[8] = Clearance in Wistar Hannover rat at 2 mg/kg, iv administered as single dose; type: ADME, organism-based; conditions: in vivo
[9] = as §2; type: ADME, organism-based; conditions: Wistar Hannover, in vivo
[10] = Fraction unbound in Beagle dog plasma at 0.5 mg/kg, iv administered as single dose; type: ADME, organism-based, Canis lupus familiaris
[11] = molecular target: Metabotropic glutamate receptor 3 (Homo sapiens, UniProt Q14832); experiment: Positive allosteric modulation of mGlu3 receptor (unknown origin)
Chain of Metabotropic glutamate receptor 3 (Q14832 whole entry): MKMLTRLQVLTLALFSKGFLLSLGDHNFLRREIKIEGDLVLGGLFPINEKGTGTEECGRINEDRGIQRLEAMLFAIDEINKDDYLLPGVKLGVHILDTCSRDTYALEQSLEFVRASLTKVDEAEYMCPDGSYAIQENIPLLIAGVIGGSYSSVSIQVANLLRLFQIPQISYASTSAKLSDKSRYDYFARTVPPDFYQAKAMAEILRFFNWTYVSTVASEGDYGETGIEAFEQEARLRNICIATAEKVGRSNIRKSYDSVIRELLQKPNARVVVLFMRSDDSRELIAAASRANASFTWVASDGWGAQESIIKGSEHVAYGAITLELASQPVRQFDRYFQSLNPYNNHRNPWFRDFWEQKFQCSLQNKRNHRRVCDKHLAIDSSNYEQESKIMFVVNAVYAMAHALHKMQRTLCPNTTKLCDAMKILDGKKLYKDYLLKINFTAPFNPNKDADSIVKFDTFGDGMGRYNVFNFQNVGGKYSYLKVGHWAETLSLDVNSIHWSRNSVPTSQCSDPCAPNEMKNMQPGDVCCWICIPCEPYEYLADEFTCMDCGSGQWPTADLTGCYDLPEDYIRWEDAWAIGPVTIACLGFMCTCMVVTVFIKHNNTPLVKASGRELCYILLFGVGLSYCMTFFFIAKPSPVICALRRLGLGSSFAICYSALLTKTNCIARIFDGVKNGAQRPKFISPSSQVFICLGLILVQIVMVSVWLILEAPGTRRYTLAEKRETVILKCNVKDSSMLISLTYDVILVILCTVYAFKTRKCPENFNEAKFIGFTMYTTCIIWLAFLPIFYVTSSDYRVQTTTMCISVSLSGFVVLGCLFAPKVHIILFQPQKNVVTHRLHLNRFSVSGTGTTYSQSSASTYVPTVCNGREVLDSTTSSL

[12] = molecular target: Metabotropic glutamate receptor 4 (Homo sapiens, UniProt Q14833); experiment: Positive allosteric modulation of mGlu4 receptor (unknown origin)
Chain of Metabotropic glutamate receptor 4 (Q14833 whole entry): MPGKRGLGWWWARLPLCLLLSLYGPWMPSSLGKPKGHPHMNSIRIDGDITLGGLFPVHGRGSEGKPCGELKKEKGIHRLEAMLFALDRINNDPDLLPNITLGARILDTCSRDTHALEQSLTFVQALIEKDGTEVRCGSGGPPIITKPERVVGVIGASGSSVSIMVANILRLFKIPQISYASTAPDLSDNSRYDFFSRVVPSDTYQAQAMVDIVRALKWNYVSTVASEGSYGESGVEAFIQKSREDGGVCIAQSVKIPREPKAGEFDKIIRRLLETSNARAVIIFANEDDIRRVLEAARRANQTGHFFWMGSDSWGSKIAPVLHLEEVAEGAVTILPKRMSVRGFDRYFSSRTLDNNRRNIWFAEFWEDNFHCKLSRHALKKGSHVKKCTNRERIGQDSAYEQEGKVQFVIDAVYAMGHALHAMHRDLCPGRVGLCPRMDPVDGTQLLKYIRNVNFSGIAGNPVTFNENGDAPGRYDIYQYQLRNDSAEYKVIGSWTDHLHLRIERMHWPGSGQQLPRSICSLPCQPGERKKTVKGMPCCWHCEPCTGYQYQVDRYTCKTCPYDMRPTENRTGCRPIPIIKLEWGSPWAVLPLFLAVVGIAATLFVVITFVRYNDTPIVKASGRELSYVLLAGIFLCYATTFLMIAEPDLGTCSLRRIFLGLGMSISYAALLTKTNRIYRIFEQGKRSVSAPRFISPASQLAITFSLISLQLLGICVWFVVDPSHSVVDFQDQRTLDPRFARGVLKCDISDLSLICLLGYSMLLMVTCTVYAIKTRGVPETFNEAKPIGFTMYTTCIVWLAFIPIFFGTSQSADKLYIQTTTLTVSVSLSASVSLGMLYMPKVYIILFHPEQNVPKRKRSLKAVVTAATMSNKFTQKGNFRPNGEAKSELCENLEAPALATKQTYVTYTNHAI

[13] = molecular target: Metabotropic glutamate receptor 5 (Homo sapiens, UniProt P41594); experiment: Positive allosteric modulation of mGlu5 receptor (unknown origin)
[14] = molecular target: Metabotropic glutamate receptor 6 (Homo sapiens, UniProt O15303); experiment: Positive allosteric modulation of mGlu6 receptor (unknown origin)
Chain of Metabotropic glutamate receptor 6 (O15303 whole entry): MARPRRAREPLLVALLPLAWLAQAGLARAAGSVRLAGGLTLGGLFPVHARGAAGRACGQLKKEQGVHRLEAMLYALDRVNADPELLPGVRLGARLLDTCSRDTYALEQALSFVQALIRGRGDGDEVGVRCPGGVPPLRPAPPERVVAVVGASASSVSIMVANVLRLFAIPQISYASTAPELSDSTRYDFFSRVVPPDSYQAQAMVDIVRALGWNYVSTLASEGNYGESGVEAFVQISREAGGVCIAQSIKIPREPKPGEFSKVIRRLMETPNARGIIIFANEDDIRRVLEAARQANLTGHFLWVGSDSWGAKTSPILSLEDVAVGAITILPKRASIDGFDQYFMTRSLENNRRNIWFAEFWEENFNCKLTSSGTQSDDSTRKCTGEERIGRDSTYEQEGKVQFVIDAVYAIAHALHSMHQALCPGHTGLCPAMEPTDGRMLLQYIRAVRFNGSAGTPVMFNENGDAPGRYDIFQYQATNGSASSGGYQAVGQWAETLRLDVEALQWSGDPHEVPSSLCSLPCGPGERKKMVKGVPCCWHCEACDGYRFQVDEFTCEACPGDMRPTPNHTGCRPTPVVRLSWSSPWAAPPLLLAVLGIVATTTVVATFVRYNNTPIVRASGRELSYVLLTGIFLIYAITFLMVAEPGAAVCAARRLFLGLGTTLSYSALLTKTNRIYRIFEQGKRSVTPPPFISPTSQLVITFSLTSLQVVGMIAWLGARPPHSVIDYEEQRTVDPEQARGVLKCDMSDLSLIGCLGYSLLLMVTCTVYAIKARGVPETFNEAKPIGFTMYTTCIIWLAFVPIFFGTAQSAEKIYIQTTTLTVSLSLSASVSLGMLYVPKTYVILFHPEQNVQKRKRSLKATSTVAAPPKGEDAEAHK

[15] = Half life in Beagle dog at 0.5 mg/kg, iv administered as single dose; type: ADME, organism-based, Canis lupus familiaris; conditions: in vivo
CYP3A4 [16] = molecular target: T2, CYP3A4 (Homo sapiens, UniProt P08684); experiment: Inhibition of CYP3A4 in human liver microsomes at 10 uM; type: ADME
T2 sequence (P08684 whole entry): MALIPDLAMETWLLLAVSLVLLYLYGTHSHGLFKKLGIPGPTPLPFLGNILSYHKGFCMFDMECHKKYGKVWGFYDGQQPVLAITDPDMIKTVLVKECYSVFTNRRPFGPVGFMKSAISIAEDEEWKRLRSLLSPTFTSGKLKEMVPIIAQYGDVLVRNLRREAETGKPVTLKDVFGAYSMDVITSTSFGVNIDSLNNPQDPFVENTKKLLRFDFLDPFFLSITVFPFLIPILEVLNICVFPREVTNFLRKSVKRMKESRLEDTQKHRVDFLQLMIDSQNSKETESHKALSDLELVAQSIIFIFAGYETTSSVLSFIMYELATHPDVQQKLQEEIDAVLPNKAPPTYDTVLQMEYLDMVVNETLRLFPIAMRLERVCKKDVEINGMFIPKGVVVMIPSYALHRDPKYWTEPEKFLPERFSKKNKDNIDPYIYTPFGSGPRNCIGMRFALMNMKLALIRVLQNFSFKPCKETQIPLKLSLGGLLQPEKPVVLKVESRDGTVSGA

Canis familiaris = experiment: Fraction unbound adjusted clearance in Beagle dog at 0.5 mg/kg, iv administered as single dose; type: ADME, organism-based, Canis lupus familiaris; conditions: in vivo
Rattus norvegicus [17] = experiment: Antipsychotic activity in Sprague-Dawley rat assessed as inhibition of MK-801-induced hyperlocomotive activity at 30 mg/kg, treated for 30 mins followed by MK-801 challenge measured over 90 mins relative to vehicle control; type: functional, organism-based
Cerebrospinal fluid = experiment: Drug uptake in Sprague-Dawley rat cerebrospinal fluid at 30 mg/kg, po; type: ADME, organism-based; conditions: in vivo, read-out: Drug uptake
Salmonella typhimurium [18] = experiment: Mutagenicity in Salmonella typhimurium by Ames test in presence of S9 liver fraction; type: toxicity, organism-based; conditions: salmonella enterica subsp. enterica serovar typhimurium
Salmonella typhimurium [19] = experiment: Mutagenicity in Salmonella typhimurium by Ames test in absence of S9 liver fraction; type: toxicity, organism-based; conditions: salmonella enterica subsp. enterica serovar typhimurium
[20] = Fraction unbound in Wistar Hannover rat plasma at 2 mg/kg, iv administered as single dose; type: ADME, organism-based
[21] = molecular target: D(2) dopamine receptor (Homo sapiens) (UniProt P14416); experiment: Activity at dopamine D2 receptor (unknown origin)
Chain of D(2) dopamine receptor (Homo sapiens) (P14416 whole entry): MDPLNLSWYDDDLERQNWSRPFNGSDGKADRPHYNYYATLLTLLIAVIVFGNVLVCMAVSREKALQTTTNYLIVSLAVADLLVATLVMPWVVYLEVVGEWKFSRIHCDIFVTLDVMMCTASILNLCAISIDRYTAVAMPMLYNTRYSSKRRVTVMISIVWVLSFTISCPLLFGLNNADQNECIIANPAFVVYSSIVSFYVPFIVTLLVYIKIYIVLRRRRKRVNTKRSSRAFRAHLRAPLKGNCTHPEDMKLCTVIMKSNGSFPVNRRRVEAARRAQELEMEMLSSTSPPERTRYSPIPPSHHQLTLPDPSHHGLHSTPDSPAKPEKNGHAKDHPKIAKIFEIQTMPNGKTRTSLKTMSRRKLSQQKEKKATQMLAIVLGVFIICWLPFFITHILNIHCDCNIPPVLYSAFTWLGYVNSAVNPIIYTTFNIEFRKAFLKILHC

[22] = molecular target: 5-hydroxytryptamine receptor 2A (Homo sapiens) (UniProt P28223); experiment: Activity at 5HT2A receptor (unknown origin)
Chain of 5-hydroxytryptamine receptor 2A (Homo sapiens) (P28223 whole entry): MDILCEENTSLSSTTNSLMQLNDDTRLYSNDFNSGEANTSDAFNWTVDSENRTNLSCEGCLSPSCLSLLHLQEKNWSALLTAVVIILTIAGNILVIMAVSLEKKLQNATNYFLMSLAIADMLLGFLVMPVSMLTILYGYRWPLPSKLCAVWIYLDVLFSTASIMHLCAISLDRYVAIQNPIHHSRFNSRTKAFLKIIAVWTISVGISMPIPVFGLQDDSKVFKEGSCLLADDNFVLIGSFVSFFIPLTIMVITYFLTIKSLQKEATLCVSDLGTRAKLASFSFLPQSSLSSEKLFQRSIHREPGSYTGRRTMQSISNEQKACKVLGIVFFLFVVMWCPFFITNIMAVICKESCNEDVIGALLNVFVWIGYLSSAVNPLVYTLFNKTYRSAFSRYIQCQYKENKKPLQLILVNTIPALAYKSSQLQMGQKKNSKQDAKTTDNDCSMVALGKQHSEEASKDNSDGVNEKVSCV

Homo sapiens = species on record: Homo sapiens; experiment: Activity at PDE10 (unknown origin)
[23] = Substrate activity at human P-gp assessed as apparent permeability; type: ADME
P-gp [24] = experiment: Substrate activity at rat P-gp assessed as efflux ratio of apparent permeability from basolateral to apical side to apical to basolateral side; type: ADME; conditions: not told
P-gp [25] = experiment: Substrate activity at rat P-gp assessed as apparent permeability; type: ADME; conditions: not told
[26] = molecular target: T1, Metabotropic glutamate receptor 2; experiment: Agonist activity at recombinant human mGlu2 receptor expressed in CHO cells assessed as potentiation of glutamate-induced effect preincubated for 5 mins followed by glutamate stimulation for 3 mins by Fluo-4AM staining-based FLIPR assay; type: cell-based
[27] = molecular target: T1, Metabotropic glutamate receptor 2; experiment: Positive allosteric modulation of recombinant human mGlu2 receptor expressed in CHO cells assessed as decrease in glutamate EC50 at 1 uM preincubated for 5 mins followed by glutamate stimulation for 3 mins by Fluo-4AM staining-based FLIPR assay relative to control; type: cell-based
Target sequence in this assay (Q14416 19-872 limits assumed): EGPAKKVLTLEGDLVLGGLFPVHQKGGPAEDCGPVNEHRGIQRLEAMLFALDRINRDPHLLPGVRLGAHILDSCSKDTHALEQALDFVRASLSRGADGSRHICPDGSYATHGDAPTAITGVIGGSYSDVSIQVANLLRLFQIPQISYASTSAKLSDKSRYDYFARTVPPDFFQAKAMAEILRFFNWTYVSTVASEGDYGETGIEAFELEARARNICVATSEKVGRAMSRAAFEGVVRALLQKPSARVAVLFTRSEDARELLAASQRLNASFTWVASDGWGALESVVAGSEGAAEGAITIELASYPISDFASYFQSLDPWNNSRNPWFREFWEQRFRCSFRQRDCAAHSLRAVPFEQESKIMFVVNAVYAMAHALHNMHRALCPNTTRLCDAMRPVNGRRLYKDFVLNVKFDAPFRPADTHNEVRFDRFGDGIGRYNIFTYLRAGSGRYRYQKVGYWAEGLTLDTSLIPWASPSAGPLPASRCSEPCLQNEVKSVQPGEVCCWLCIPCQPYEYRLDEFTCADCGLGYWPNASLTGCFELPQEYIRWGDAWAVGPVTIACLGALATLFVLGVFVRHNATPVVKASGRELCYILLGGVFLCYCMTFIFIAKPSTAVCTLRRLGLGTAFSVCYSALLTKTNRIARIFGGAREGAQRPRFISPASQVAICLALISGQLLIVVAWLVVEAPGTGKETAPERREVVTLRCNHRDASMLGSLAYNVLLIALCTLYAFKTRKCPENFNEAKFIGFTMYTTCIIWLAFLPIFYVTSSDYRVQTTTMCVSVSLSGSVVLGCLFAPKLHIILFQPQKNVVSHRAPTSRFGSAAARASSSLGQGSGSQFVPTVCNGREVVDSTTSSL

[28] = Clearance in Beagle dog at 0.5 mg/kg, iv administered as single dose; type: ADME, organism-based, Canis lupus familiaris; conditions: in vivo
[29] = AUC in Beagle dog at 1 mg/kg, po administered as single dose; type: ADME, organism-based, Canis lupus familiaris; conditions: in vivo
[30] = Oral bioavailability in Beagle dog at 1 mg/kg administered as single dose; type: ADME, organism-based, Canis lupus familiaris; conditions: in vivo
[31] = Intrinsic clearance in dog liver microsomes at 10 uM incubated for 20 to 60 mins by LC-HRMS analysis in presence of NADPH/GSH; type: ADME, Canis lupus familiaris; conditions: read-out: CLH
Rattus norvegicus [32] = experiment: Antipsychotic activity in Sprague-Dawley rat assessed as inhibition of MK-801-induced hyperlocomotive activity at 10 mg/kg, treated for 30 mins followed by MK-801 challenge measured over 90 mins relative to vehicle control; type: functional, organism-based
Plasma = experiment: Plasma concentration in Sprague-Dawley rat at 10 mg/kg, po; type: ADME, organism-based; conditions: in vivo
CYP3A4 [33] = molecular target: T2, CYP3A4; experiment: (§3) Time dependent inhibition of CYP3A4 in human liver microsomes; type: ADME; conditions: human, liver microsomes
Cytochrome P450 3A4 = Cytochrome P450 3A4 (Homo sapiens, UniProt P08684); experiment: as §3; type: ADME
Chain of Cytochrome P450 3A4 (P08684 whole entry): as the sequence (P08684 whole entry) above

[34] = molecular target: Metabotropic glutamate receptor 2 (Rattus norvegicus, UniProt P31421); experiment: Positive allosteric modulation of rat mGlu2 receptor assessed as potentiation of glutamate-induced effect by Fluo-4AM staining-based FLIPR assay

Compound: Cc1cc(CN2CC3CCC2CN3c2ccc3c(n2)n(C)c(=O)n3CC(C)(C)C)no1 (racemic)
- %max [1]: 74%
- EC50 [1]: 0.149 µM
- solubility [2]: 186 µM (≈ 79 µg/mL)
- AUC [3]: 2 µM·h

Compound: Cn1c(=O)n(CC(C)(C)C)c2ccc(N3CC4CCC3CN4C(=O)c3cccnc3)nc21 (racemic)
- %max [1]: 74%
- EC50 [1]: 0.115 µM
- solubility [2]: 183 µM (≈ 79.5 µg/mL)
- half-life [4]: 0.5 h
- CL free (Rattus norvegicus [5]): 2.9 mL/min/kg
- AUC (Rattus norvegicus [6]): 18 µM·h
- F (Rattus norvegicus [7]): 73%

Compound: Cn1c(=O)n(CC(C)(C)C)c2ccc(N3CC4CCC3CN4C(=O)c3ccccc3)nc21 (racemic)
- %max [1]: 71%
- EC50 [1]: 0.036 µM
- solubility [2]: 66 µM (≈ 28.6 µg/mL)
- half-life [4]: 1.2 h
- clearance [8]: 69 mL/min/kg
- CL free (Rattus norvegicus [5]): 35 mL/min/kg
- AUC [3]: 2 µM·h
- bioavailability [9]: 10%

Compound: Cn1c(=O)n(CC(C)(C)C)c2ccc(N3CC4CCC3CN4c3ncccn3)nc21 (racemic)
- %max [1]: 65%
- EC50 [1]: 0.037 µM
- solubility [2]: 18 µM (≈ 7.34 µg/mL)
- AUC [3]: 3.9 µM·h

Compound: Cn1c(=O)n(CC(C)(C)C)c2ccc(C3=C[C@@H]4CC[C@H]3CN4C(=O)c3ccon3)nc21
- fraction unbound [10]: 0.02
- %max [1]: 78%
- EC50 [11]: > 30 µM
- EC50 [12]: > 30 µM
- EC50 [13]: > 30 µM
- EC50 [14]: > 30 µM
- half-life [15]: 16 h
- half-life [4]: 10 h
- CL free (Rattus norvegicus [5]): 17 mL/min/kg
- inhibition at 10 µM (CYP3A4 [16]): 6%
- CL free (Canis familiaris): 4.7 mL/min/kg
- Activity (Rattus norvegicus [17]): Active
- concentration (Cerebrospinal fluid): 61 nM
- Activity (Salmonella typhimurium [18]): Non-toxic
- Activity (Salmonella typhimurium [19]): Non-toxic
- fraction unbound [20]: 0.02
- Activity [21]: inactive
- Activity [22]: inactive
- Activity (Homo sapiens): inactive

Compound: Cn1c(=O)n(CC(C)(C)C)c2ccc(N3C[C@@H]4CC[C@H]3CN4C(=O)c3ccon3)nc21
- fraction unbound [10]: 0.08
- Activity [23]: Not Active
- efflux ratio (P-gp [24]): 1.5
- Papp (P-gp [25]): 31 ×10⁻⁶ cm/s
- %max [1]: 78%
- EC50 [1]: 0.029 µM
- %max [26]: 35%
- EC50 [26]: 0.668 µM
- fold change (FC) [27]: 12
- EC50 [11]: > 30 µM
- EC50 [12]: > 30 µM
- EC50 [13]: > 30 µM
- EC50 [14]: > 30 µM
- solubility [2]: 125 µM (≈ 53.1 µg/mL)
- half-life [15]: 12 h
- half-life [4]: 2.3 h
- clearance [28]: 7 mL/min/kg
- clearance [8]: 28 mL/min/kg
- CL free (Rattus norvegicus [5]): 4.7 mL/min/kg
- AUC [3]: 14 µM·h
- AUC [29]: 1.3 µM·h
- bioavailability [9]: 72%
- bioavailability [30]: 24%
- CLint scaled at 10 µM [31]: < 55 mL/min/kg
- Activity (Rattus norvegicus [32]): Active
- concentration (Plasma): 3200 nM
- kinact (CYP3A4 [33]): 0.00107 s⁻¹
- Ki (Cytochrome P450 3A4): 0.54 µM
- TDI (Cytochrome P450 3A4; human, microsomes): Active
- inhibition at 10 µM (CYP3A4 [16]): 73%
- CL free (Canis familiaris): 0.9 mL/min/kg
- Activity (Rattus norvegicus [17]): Active
- fraction unbound [20]: 0.06
- EC50 [34]: 0.075 µM

Compound: Cn1c(=O)n(CC(C)(C)C)c2ccc(N3CCCc4ccccc43)nc21
- %max [1]: 60%
- EC50 [1]: 0.332 µM
- EC50 [11]: > 30 µM
- EC50 [12]: > 30 µM
- EC50 [13]: > 30 µM
- EC50 [14]: > 30 µM

Compound: Cn1c(=O)n(CC(C)(C)C)c2ccc(N3CCCCC3)nc21
- %max [1]: 87%
- EC50 [1]: 0.43 µM
- EC50 [11]: > 30 µM
- EC50 [12]: > 30 µM
- EC50 [13]: > 30 µM
- EC50 [14]: > 30 µM

Compound: Cn1c(=O)n(CC(C)(C)C)c2ccc(C3CCN(C(=O)c4ccon4)CC3)nc21
- %max [1]: 79%
- EC50 [1]: 0.531 µM
- inhibition at 10 µM (CYP3A4 [16]): 7%

Compound: Cn1c(=O)n(CC(C)(C)C)c2ccc(N3C[C@@H]4CC[C@H]3CN4C(=O)c3csnn3)nc21
- Activity [23]: Not Active
- efflux ratio (P-gp [24]): 1.1
- Papp (P-gp [25]): 30 ×10⁻⁶ cm/s
- %max [1]: 72%
- EC50 [1]: 0.029 µM
- %max [26]: 49%
- EC50 [26]: 0.637 µM
- fold change (FC) [27]: 26
- EC50 [11]: > 30 µM
- EC50 [12]: > 30 µM
- EC50 [13]: > 30 µM
- EC50 [14]: > 30 µM
- solubility [2]: 116 µM (≈ 51.2 µg/mL)
- half-life [15]: 2.5 h
- clearance [28]: 14 mL/min/kg
- AUC [3]: 13 µM·h

Compound: Cn1c(=O)n(CC(C)(C)C)c2ccc(N3CC4CCC3CN4C(=O)OC(C)(C)C)nc21 (racemic)
- %max [1]: 70%
- EC50 [1]: 0.125 µM
- EC50 [11]: > 30 µM
- EC50 [12]: > 30 µM
- EC50 [13]: > 30 µM
- EC50 [14]: > 30 µM

Compound: Cn1c(=O)n(CC(C)(C)C)c2ccc(N3CC4CCC3CN4)nc21 (racemic)
- %max [1]: 71%
- EC50 [1]: 1.29 µM
- EC50 [11]: > 30 µM
- EC50 [12]: > 30 µM
- EC50 [13]: > 30 µM
- EC50 [14]: > 30 µM

Compound: Cn1c(=O)n(CC(C)(C)C)c2ccc(N3CCCC4CCCCC43)nc21 (mixture of isomers)
- %max [1]: 77%
- EC50 [1]: 2.2 µM
- EC50 [11]: > 30 µM
- EC50 [12]: > 30 µM
- EC50 [13]: > 30 µM
- EC50 [14]: > 30 µM
